Source: patent publication US8980881B2, “Crystalline forms of (R)-8-chloro-1-methyl-2,3,4,5-tetrahydro-1H-3-benzazepine hydrochloride” (priority 2004, dated 2015)
“Also recorded” adds a separate entry of the source. Where a name gives a salt, the structure may show the parent alone.

How the values were obtained:
[1] = Heat stability of crystalline form, XRPD analysis after heating; assay type: physicochemical
Experimental: A sample of Form I was heated to 160° C. in a TGA furnace for about 15 min when heated at a rate of about 10° C./min.
A sample of Form III was heated to 60° C. for at least 2 hours.
A sample of Form III was heated to 60° C. for one day.
A sample of Form III was heated to 80° C. for 30 minutes.
A sample of Form III was heated to 80° C. for 1 day.

[2] = Dynamic vapor sorption (DVS) scan, with XRPD after the cycle; assay type: physicochemical; settings: for crystalline form after DVS cycle: XRPD after the DVS cycle; for moisture adsorbed: between about 40 and about 80% RH, calculated from DVS; for DVS: adsorbs (moisture) / DVS: adsorption transition at / DVS: deliquescent above / DVS: hygroscopicity: dynamic vapor sorption
Source text: FIG. 4 depicts a dynamic vapor sorption (DVS) scan for crystalline Form I of the invention (VTI dynamic vapor desorption analyzer).
FIG. 8 depicts a dynamic vapor sorption (DVS) scan for crystalline Form II of the invention (VTI dynamic vapor desorption analyzer).
FIG. 12 depicts a dynamic vapor sorption (DVS) scan for crystalline Form III of the invention.
The various crystalline forms of (R)-8-chloro-1-methyl-2,3,4,5-tetrahydro-1H-3-benzazepine hydrochloride can be identified by their unique solid state signatures with respect to, for example, differential scanning calorimetry (DSC), X-ray powder diffraction (XRPD), and other solid state methods. Further characterization with respect to water or solvent content of the crystalline forms can be gauged by any of various routine methods such as thermogravimetric analysis (TGA), dynamic vapor sorption (DVS), DSC and other techniques. For DSC, it is known that the temperatures observed will depend upon the rate of temperature change as well as sample preparation technique and the particular instrument employed. Thus, the values reported herein relating to DSC thermograms can vary by plus or minus about 4° C. For XRPD, the relative intensities of the peaks can vary, depending upon the sample preparation technique, the sample mounting procedure and the particular instrument employed. Moreover, instrument variation and other factors can often affect the 2-theta values. Therefore, the peak assignments of diffraction patterns can vary by plus or minus about 0.2°.
XRPD carried out on both Forms I and II after the DVS cycle confirmed this conversion.

Row | Compound | crystal form after heating (XRPD) ([1]; heated to 160° C. in a TGA furnace for about 15 min, about 10° C./min) | crystalline form after DVS cycle ([2]; hydrochloride) | moisture adsorbed [2] | DVS: adsorbs (moisture) [2] | DVS: adsorption transition at ([2]; hydrochloride) | DVS: deliquescent above ([2]; hydrochloride) | DVS: hygroscopicity ([2]; hydrochloride) | conversion upon exposure to moisture [2] | crystal form after heating (XRPD) ([1]; heated to 60° C. for at least 2 hours) | crystal form after heating (XRPD) ([1]; heated to 60° C. for one day) | crystal form after heating (XRPD) ([1]; heated to 80° C. for 30 minutes) | crystal form after heating (XRPD) ([1]; heated to 80° C. for 1 day) | crystalline form after DVS cycle ([2]; hydrochloride Hemihydrate) | DVS: adsorption at 90% RH ([2]; at 90% RH) | water adsorbed ([2]; at 90% RH) | DVS: deliquescent above ([2]; hydrochloride Hemihydrate) | DVS: hygroscopicity ([2]; hydrochloride Hemihydrate)
1 | C[C@H]1CNCCc2ccc(Cl)cc21 [Form I, (R)-8-chloro-1-methyl-2,3,4,5-tetrahydro-1H-3-benzazepine hydrochloride] | no change in crystal form | conversion to the hemihydrate (Form III); also recorded: crystalline form changes | about 3.8 wt % | adsorbs about 3.8 wt %; | about 60% RH; | deliquescent above 90% RH | hygroscopic; also recorded: hygroscopic; | readily convert to Form III |  |  |  |  |  |  |  |  | 
2 | C[C@H]1CNCCc2ccc(Cl)cc21 [Form II, (R)-8-chloro-1-methyl-2,3,4,5-tetrahydro-1H-3-benzazepine hydrochloride] |  | conversion to the hemihydrate (Form III); also recorded: crystalline form changes | about 3.8 wt % | adsorbs about 3.8 wt %; | about 40% RH; | deliquescent above 90% RH | hygroscopic; also recorded: hygroscopic; | readily convert to Form III |  |  |  |  |  |  |  |  | 
3 | C[C@H]1CNCCc2ccc(Cl)cc21 [Form III, (R)-8-chloro-1-methyl-2,3,4,5-tetrahydro-1H-3-benzazepine hydrochloride Hemihydrate] |  |  |  |  |  |  |  |  | substantially no change in crystal form | partial conversion to Form I | partial conversion to Form I | partial conversion to Form I | no change in crystalline form | adsorption of less than 0.5% | less than 0.5 wt % | deliquescent above 95% RH; | substantially non-hygroscopic
